Measurements taken from article PMC5101133 (Nature biotechnology, 2016).

Tests used:
Test in all cases: NADH fluorescence
Type in all cases: biochemical
Settings in all cases: 1 mM NAD+, 50 mM Tris pH 8.0, 150 mM NaCl, 0.1% Triton X-100
[1] = target: T1, ALDH3A1 (Homo sapiens, UniProt P30838)
T1 sequence (P30838 1-453): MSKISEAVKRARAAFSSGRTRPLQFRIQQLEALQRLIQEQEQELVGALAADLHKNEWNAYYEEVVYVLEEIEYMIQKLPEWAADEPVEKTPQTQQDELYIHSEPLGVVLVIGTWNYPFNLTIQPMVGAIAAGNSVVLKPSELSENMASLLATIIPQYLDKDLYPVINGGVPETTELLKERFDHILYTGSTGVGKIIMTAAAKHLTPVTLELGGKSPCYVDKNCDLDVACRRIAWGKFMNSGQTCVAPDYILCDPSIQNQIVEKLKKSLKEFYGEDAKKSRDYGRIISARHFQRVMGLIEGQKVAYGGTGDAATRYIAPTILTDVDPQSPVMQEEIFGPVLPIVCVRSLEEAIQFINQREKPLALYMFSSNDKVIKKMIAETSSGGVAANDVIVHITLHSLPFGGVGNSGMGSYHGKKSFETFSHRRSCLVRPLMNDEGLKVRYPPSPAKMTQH

[2] = target: T2, Hfd1p^CΔ25 (MBP-Hfd1^CΔ25) (Saccharomyces cerevisiae, UniProt Q04458)
T2 sequence (Q04458 1-507): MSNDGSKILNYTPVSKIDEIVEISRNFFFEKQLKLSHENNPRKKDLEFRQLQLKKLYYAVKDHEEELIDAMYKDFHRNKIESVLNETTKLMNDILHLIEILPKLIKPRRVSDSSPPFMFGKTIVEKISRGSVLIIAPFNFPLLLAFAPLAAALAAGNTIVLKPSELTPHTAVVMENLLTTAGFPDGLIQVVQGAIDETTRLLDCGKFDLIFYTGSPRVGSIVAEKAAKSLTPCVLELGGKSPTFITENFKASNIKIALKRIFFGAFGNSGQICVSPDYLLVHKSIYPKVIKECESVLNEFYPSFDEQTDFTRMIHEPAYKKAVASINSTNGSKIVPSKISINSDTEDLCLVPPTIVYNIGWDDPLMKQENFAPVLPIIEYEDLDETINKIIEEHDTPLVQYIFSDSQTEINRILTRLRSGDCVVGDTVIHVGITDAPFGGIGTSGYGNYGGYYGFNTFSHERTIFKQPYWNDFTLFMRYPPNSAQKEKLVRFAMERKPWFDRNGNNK

[3] = target: ALDH3A2^CΔ25 (FALDH) (Homo sapiens, UniProt P51648)
Chain of ALDH3A2^CΔ25 (FALDH) (P51648 1-460, stated change not applied): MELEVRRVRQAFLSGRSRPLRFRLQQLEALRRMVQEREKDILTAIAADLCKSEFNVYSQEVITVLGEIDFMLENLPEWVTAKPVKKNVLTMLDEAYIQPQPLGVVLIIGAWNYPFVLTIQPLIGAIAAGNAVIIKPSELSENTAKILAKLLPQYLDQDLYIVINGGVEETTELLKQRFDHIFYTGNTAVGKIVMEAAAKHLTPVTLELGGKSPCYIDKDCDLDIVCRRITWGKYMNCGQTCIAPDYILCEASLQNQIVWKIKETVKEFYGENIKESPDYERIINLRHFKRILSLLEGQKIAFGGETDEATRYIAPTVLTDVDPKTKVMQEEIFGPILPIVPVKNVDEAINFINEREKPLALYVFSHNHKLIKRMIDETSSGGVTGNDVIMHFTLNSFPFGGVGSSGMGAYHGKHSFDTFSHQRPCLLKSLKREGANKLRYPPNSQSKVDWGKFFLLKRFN

Row | Structure (SMILES) | KM [1] | KM [2] | KM [3]
1 | O=Cc1ccc(O)cc1 [4-HBz] | Hfd1p and ALDH3A1 show a preference for 4-HBz | WT Hfd1p catalyzes NAD^+-dependent dehydrogenation of 4-HBz | –
2 | CCCCCCCCCCCCCCCC=O [hexadecanal] | – | we observed Hfd1p activity in vitro with hexadecanal, similar to that observed with 4-HBz | ALDH3A2 shows a strong substrate preference for hexadecanal over 4-HBz
